The test system of this test is HUVECs. Briefly: Capillary-like tube formation assay (tubulogenesis). It counts as cell-based, human. The conditions noted are these: for IC50: Homo sapiens, HUVEC, anti-angiogenic activity, read-out: IC50 value; for remarks: remark on IC50 versus sunitinib. How it is done: FIG. 2 represents effect of Compound 1 on capillary tube formation of HUVECs. Endothelial cells in Matrigel were incubated with ECM basal medium in the presence of compound 1 at the indicated concentrations for 6 h. Cell viability was assessed by Calcein-AM dye added few min. before the completion of 6 h. then photographs at 10×magnification were taken using an inverted microscope. The tubule length of HUVECs was quantified by Leica QWin software. Tubule network formation is expressed as a percentage of that vehicle (0.1% DMSO) treated cells (control).
FIG. 9 represents effect of racemic mixture (chiral isomer 1-1 and chiral isomer 2-1) of Compound 1 on capillary tube formation of HUVECs. Endothelial cells seeded in matrigel were incubated at the indicated concentrations of compound 1 racemic mixtures (1-1 and 2-1) with ECM basal medium for 6 h. Calcein-AM treatment was added to the ECs few minutes before completion of 6 h and pictures were captured using an inverted microscope at 10×magnification. The tubular structures of HUVECs were measured using Leica QWin software and tubulogenesis was expressed as a % of that vehicle (0.1% DMSO) treated cells (control) well.
HUVEC cells were incubated with or without sunitinib (20 nM) for 6 h at indicated concentrations of chiral isomers of Compound 1 (1-1 and 2-1). Photographs were taken using an inverted microscope at 10×magnification after Calcein-AM treatment to the ECs few minutes before completion of 6 h. The tubule length of HUVECs was quantified by Leica QWin software represented as a % of that vehicle (0.1% DMSO) treated cells (control) well.
To examine the effect of Compound 1 on angiogenesis, capillary tube formation assay was performed on regular or reduced growth factor Matrigel, taking VEGF (50 ng/mL) treated cells as a positive control and sunitinib (50 nM) as a negative control (FIG. 2). HUVECs seeded onto the matrigel with compound 1 at different concentrations of (10 μM, 5 μM, 1 μM, 800 nM, 500 nM, 250 nM, 125 nM, 75 nM, 50 nM, 25 nM and 10 nM) were incubated for six hours.
HUVECs (Human Umbilical Vein Endothelial Cells) were seeded onto the pre-coated matrigel (CORNING; 354230) in 96 wells plate at the rate of 11000 cells/well in incomplete ECM basal medium. Control group received vehicle, VEGF at 50 ng/mL as a positive and sunitinib at 50 nM as a negative control were used. Compound 1 at different dose concentrations (10 μM, 5 μM, 1 μM, 800 nM, 500 nM, 250 nM, 100 nM, 75 nM, 50 nM and 25 nM) were employed on seeded HUVECs in incomplete medium. Post 6 h of incubation Calcein-AM (Invitrogen) was added to all the respective groups and then the tubule pattern was observed and photographs were taken using an inverted fluorescent microscope (DM 6000, Leica Microsystems, USA). Relative tubule lengths were measured using Leica Q-Win software version 3.5.1. (Leica Microsystems, Switzerland).

Where [1] appears, read: endothelial tubule network assay.

Structures are written as SMILES.

As a reminder, the IC50 is the concentration that inhibits the measured activity by half. As for `C=CCCCC1=NC1C(=O)OCC` (centres unmarked) [Compound 2, Ethyl 3-(pent-4-en-1-yl)-2H-azirine-2-carboxylate], the IC50 under setting [1] was found to be 250 nM. Consider `CCOC(=O)C1N=C1CCC=C(C)C` (centres unmarked) [Compound 4, Ethyl 3-(4-methylpent-3-en-1-yl)-2H-azirine-2-carboxylate], for which the IC50 value entry (endothelial tubule network assay, result in words) was “Not Active”. `CCOC(=O)C1N=C1CC/C=C(\C)CCC=C(C)C` (centres unmarked) [Compound 5, Ethyl (E)-3-(4,8-dimethylnona-3,7-dien-1-yl)-2H-azirine-2-carboxylate]: the IC50 under setting [1] amounted to 350 nM.

As to `CCOC(=O)C1N=C1CCc1ccccc1` (centres unmarked) [Compound 6, Ethyl 3-phenethyl-2H-azirine-2-carboxylate], under setting [1], the IC50 was 5000 nM. Turning to `CCOC(=O)C1N=C1CCc1ccc(C)cc1` (centres unmarked) [Compound 7, Ethyl 3-(4-methylphenethyl)-2H-azirine-2-carboxylate], the IC50 under setting [1] was determined as 4000 nM. Consider `CCOC(=O)C1N=C1CCc1ccc(C(C)(C)C)cc1` (centres unmarked) [Compound 9, Ethyl 3-(4-(tert-butyl)phenethyl)-2H-azirine-2-carboxylate], for which the IC50 under setting [1] turned out to be 550 nM. Same read-out and setting: then `CCOC(=O)C1N=C1CCc1ccc(F)cc1` (centres unmarked) [Compound 10, Ethyl 3-(4-fluorophenethyl)-2H-azirine-2-carboxylate], with 600 nM; and `CCOC(=O)C1N=C1CC/C=C/c1ccccc1` (centres unmarked) [Compound 11, Ethyl (E)-3-(4-phenylbut-3-en-1-yl)-2H-azirine-2-carboxylate], with 450 nM; and `CCOC(=O)C1N=C1CCc1cc(OC)c(OC)c(OC)c1` (centres unmarked) [Compound 12, Ethyl 3-(3,4,5-trimethoxyphenethyl)-2H-azirine-2-carboxylate], with 200 nM. For `CCOC(=O)C1N=C1/C=C/c1ccc(OC)cc1` (centres unmarked) [Compound 13, Ethyl (E)-3-(4-methoxystyryl)-2H-azirine-2-carboxylate], the remarks result is listed as “comparable to sunitinib”. For the same molecule, the IC50 under setting [1] turned out to be 100 nM. For the molecule `COC(=O)C1N=C1CCc1ccc(OC)cc1` (centres unmarked) [Compound 14, Methyl 3-(4-methoxyphenethyl)-2H-azirine-2-carboxylate], the IC50 under setting [1] worked out at 750 nM. On to `CCOC(=O)C1N=C1CCc1ccc(Br)cc1` (centres unmarked) [Compound 15, Ethyl 3-(4-bromophenethyl)-2H-azirine-2-carboxylate], for which the IC50 under setting [1] worked out at 800 nM.

As to `CCOC(=O)C1N=C1CCc1ccc(I)cc1` (centres unmarked) [Compound 16, Ethyl 3-(4-iodophenethyl)-2H-azirine-2-carboxylate], the IC50 under setting [1] came to 800 nM. For `COc1ccc(CCC2=NC2C(=O)OC(C)(C)C)cc1` (centres unmarked) [Compound 17, tert-Butyl 3-(4-methoxyphenethyl)-2H-azirine-2-carboxylate], under setting [1], the IC50 came out at 400 nM. Regarding `COc1ccc(CC2(C(=O)OCc3ccccc3)N=C2C)cc1` (centres unmarked) [Compound 18, Benzyl 2-(4-methoxybenzyl)-3-methyl-2H-azirine-2-carboxylate], the IC50 under setting [1] came to 400 nM. Same read-out and setting: then `CCCOC(=O)C1N=C1CCc1ccc(OC)cc1` (centres unmarked) [Compound 19, Propyl 3-(4-methoxyphenethyl)-2H-azirine-2-carboxylate], with 800 nM. With `COc1ccc(CCC2=NC2C(=O)OC(C)C)cc1` (centres unmarked) [Compound 20, Isopropyl 3-(4-methoxyphenethyl)-2H-azirine-2-carboxylate], the IC50 under setting [1] came to 750 nM. Take `COc1ccc(CCC2=NC2C(=O)OCC(C)C)cc1` (centres unmarked) [Compound 21, Isobutyl 3-(4-methoxyphenethyl)-2H-azirine-2-carboxylate]: under setting [1], the concentration for half-maximal inhibition (IC50) was determined as 750 nM. Consider `CCC(C)OC(=O)C1N=C1CCc1ccc(OC)cc1` (centres unmarked) [Compound 22, sec-Butyl 3-(4-methoxyphenethyl)-2H-azirine-2-carboxylate], for which the IC50 under setting [1] stood at 600 nM. In the case of `CCCCCOC(=O)C1N=C1CCc1ccc(OC)cc1` (centres unmarked) [Compound 23, Pentyl 3-(4-methoxyphenethyl)-2H-azirine-2-carboxylate], the IC50 under setting [1] was 600 nM. The same measure, in the same setting: then `COc1ccc(CCC2=NC2C(=O)OCCC(C)C)cc1` (centres unmarked) [Compound 24, Isopentyl 3-(4-methoxyphenethyl)-2H-azirine-2-carboxylate], with 700 nM; and `COCCOC(=O)C1N=C1CCc1ccc(OC)cc1` (centres unmarked) [Compound 25, 2-Methoxyethyl 3-(4-methoxyphenethyl)-2H-azirine-2-carboxylate], with 700 nM. Take `C=CCOC(=O)C1N=C1CCc1ccc(OC)cc1` (centres unmarked) [Compound 26, Allyl 3-(4-methoxyphenethyl)-2H-azirine-2-carboxylate]: the IC50 under setting [1] is 500 nM. On to `CCOC(=O)C1N=C1CCc1ccc2ccccc2c1` (centres unmarked) [Compound 27, Ethyl 3-(2-(naphthalen-2-yl)ethyl)-2H-azirine-2-carboxylate], for which the remarks result is listed as “comparable to sunitinib”. Besides, under setting [1], the IC50 came to 100 nM. Consider `CCOC(=O)C1N=C1CCc1ccc(OC(F)(F)F)cc1` (centres unmarked) [Compound 28, Ethyl 3-(4-(trifluoromethoxy)phenethyl)-2H-azirine-2-carboxylate], for which the remarks entry is “comparable to sunitinib”. Besides, the IC50 under setting [1] stood at 50 nM. For the molecule `CCCCCCCCOC(=O)C1N=C1CCc1ccc(OC)cc1` (centres unmarked) [Compound 29, Octyl 3-(4-methoxyphenethyl)-2H-azirine-2-carboxylate], the IC50 under setting [1] stood at 250 nM. As to `CCOC(=O)C1N=C1CCC1CCCO1` (centres unmarked) [Compound 30, Ethyl 3-(2-(tetrahydrofuran-2-yl)ethyl)-2H-azirine-2-carboxylate], the IC50 under setting [1] is 250 nM. On the same count and under the same terms, then `CCOC(=O)C1N=C1CCc1ccc(C#N)cc1` (centres unmarked) [Compound 31, Ethyl 3-(4-cyanophenethyl)-2H-azirine-2-carboxylate], with 250 nM. For `CCCCOc1ccc(CCC2=NC2C(=O)OCC)cc1` (centres unmarked) [Compound 32, Ethyl 3-(4-butoxyphenethyl)-2H-azirine-2-carboxylate], the remarks result is “comparable to sunitinib”. Also, the IC50 under setting [1] was found to be 50 nM. Take `CCOC(=O)C1N=C1CCc1c2ccccc2cc2ccccc12` (centres unmarked) [Compound 33, Ethyl 3-(2-(anthracen-9-yl)ethyl)-2H-azirine-2-carboxylate]: the remarks result is listed as “comparable to sunitinib”. Under setting [1], the IC50 was 50 nM. Regarding `CCOC(=O)C1(C(=O)OCC)N=C1CCc1ccc(OC)cc1` [Compound 35, Diethyl 3-(4-methoxyphenethyl)-2H-azirine-2,2-dicarboxylate], under setting [1], the IC50 stood at 250 nM.

As for `C=Cc1ccc(CCC2=NC2C(=O)OCC)cc1` (centres unmarked) [Compound 36, Ethyl 3-(4-vinylphenethyl)-2H-azirine-2-carboxylate], the half-maximal inhibitory concentration (IC50) under setting [1] was determined as 250 nM. As for `CCOC(=O)C1N=C1CCCc1ccc2c(c1)CCO2` (centres unmarked) [Compound 37, Ethyl-3-(3-(2,3-dihydrobenzofuran-5-yl)propyl)-2H-azirine-2-carboxylate], the remarks result is listed as “comparable to sunitinib”. Moreover, the IC50 under setting [1] came out at 50 nM. As for `CCOC(=O)C1N=C1CCc1cn(C(=O)OC(C)(C)C)c2ccccc12` (centres unmarked) [Compound 38, tert-Butyl-3-(2-(2-(ethoxycarbonyl)-2H-azirin-3-yl)ethyl)-1H-indole-1-carboxylate], the remarks result was “comparable to sunitinib”. Moreover, the IC50 under setting [1] was 75 nM. `CCOC(=O)C1N=C1CCc1ccc2c(c1)CCO2` (centres unmarked) [Compound 39, Ethyl 3-(2-(2,3-dihydrobenzofuran-5-yl)ethyl)-2H-azirine-2-carboxylate]: the IC50 under setting [1] was determined as 2500 nM.

In the case of `CCOC(=O)C1N=C1CCCc1ccc2occc2c1` (centres unmarked) [Compound 40, Ethyl-3-(3-(benzofuran-5-yl)propyl)-2H-azirine-2-carboxylate], the IC50 under setting [1] worked out at 500 nM. In the case of `CCOC(=O)C1N=C1CCc1ccc2c(c1)OCO2` (centres unmarked) [Compound 41, Ethyl 3-(2-(benzo[d][1,3]dioxol-5-yl)ethyl)-2H-azirine-2-carboxylate], the IC50 under setting [1] turned out to be 1000 nM. On to `CCOC(=O)C1N=C1CCCCc1ccc2c(c1)CCO2` (centres unmarked) [Compound 42, Ethyl 3-(4-(2,3-dihydrobenzofuran-5-yl)butyl)-2H-azirine-2-carboxylate], for which the remarks entry is reported as “comparable to sunitinib”. Under setting [1], the IC50 came to 25 nM.

As for `CCOC(=O)C1N=C1CCCc1ccc2c(c1)OCO2` (centres unmarked) [Compound 43, Ethyl 3-(3-(benzo[d][1,3]dioxol-5-yl)propyl)-2H-azirine-2-carboxylate], the IC50 under setting [1] is 250 nM.
